Data taken from article PMC9916770, “Lycorine Carbamate Derivatives for Reversing P-glycoprotein-Mediated Multidrug Resistance in Human Colon Adenocarcinoma Cells” (International Journal of Molecular Sciences, 2023).

What was measured:
Colo205 cells = test: MTT antiproliferative assay, sensitive cells; format: cell-based, human; conditions: for IC50: Homo sapiens, COLO 205, sensitive Colo205, MTT, 72 h, mean ± SD; for SI (selectivity index) C/A: IC50 MRC-5 / IC50 Colo205
Procedure: (§1) The human colon adenocarcinoma cell lines Colo205 doxorubicin-sensitive (CCL-222, ATCC, Manassas, VA, USA) and the resistant Colo320/MDR-LRP expressing P-gp were purchased from LGC Promochem (Teddington, UK). The MRC-5 human embryonal lung fibroblast cell line (CCL-171, ATCC) was purchased from Sigma-Aldrich (Merck KGaA, Darmstadt, Germany). The human colon adenocarcinoma cells (Colo205 and Colo320) were cultured in an RPMI 1640 medium supplemented with 10% fetal bovine serum (FBS), 2 mM L-glutamine, 1 mM Na-pyruvate, and 100 mM HEPES. The semi-adherent human colon cancer cells were detached with a trypsin-Versene (EDTA) solution for 5 min at 37 °C. The MRC-5 human embryonal lung fibroblast cells were cultured in EMEM containing 4.5 g/L of glucose and supplemented with a non-essential amino acid mixture, a selection of vitamins, and 10% FBS. The cell lines were incubated at 37 °C, 5% CO2, and 95% air atmosphere.
(§2) The antiproliferative effect of the compounds was tested in decreasing serial dilutions of compounds (starting with 100 µM, then two-fold serial dilution) on human cell lines (Colo205, Colo320, and MRC-5) in 96-well flat-bottomed microtiter plates. Firstly, the compounds were diluted in 100 µL of the medium, and then 6 × 10^3 cells (Colo205 and Colo320), in 100 µL of medium, were added to each well, excluding the medium control wells. The MRC-5 adherent cell line was seeded in the EMEM medium for at least 4 h before the assay. The two-fold serial dilutions of the compounds were made in a separate plate (100–0.19 μM) and then transferred to the plates containing the adherent corresponding cell line. Culture plates were incubated at 37 °C for 72 h, and at the end of the incubation period, 20 μL of MTT (thiazolyl blue tetrazolium bromide) solution (from a 5 mg/mL stock solution) was added to each well and incubated for an additional 4 h. Then, 100 μL of sodium dodecyl sulfate (SDS) solution (10% SDS in 0.01 M HCl) was added to each well, and the plates were further incubated at 37 °C overnight in a CO2 incubator. Cell growth was determined by measuring the optical density (OD) at 540/630 nm with a Multiscan EX ELISA reader (Thermo Labsystems, Cheshire, WA, USA). […] IC50 values and the standard deviation (SD) of triplicate experiments were calculated by using GraphPad Prism 5 software for Windows. Doxorubicin (2 mg/mL, Teva Pharmaceuticals, Budapest, Hungary) was used as a positive control and the vehicle DMSO as the negative control. (1) IC50=[ODsample−ODmedium control/ODcell control−ODmedium control]×100
(§3) The relative resistance (RR) was calculated as the ratio of the IC50 value in the resistant cancer cells and the IC50 in the sensitive cancer cell lines. The selectivity indexes (SI) were calculated as the ratio of the IC50 values in the non-tumor cells and the IC50 in the cancer cell lines. The activity of the compounds toward cancer cells is considered strongly selective if the selectivity index (SI) value is higher than 6, moderately selective if 3 < SI < 6, slightly selective if 1 < SI < 3, and non-selective if SI is lower than 1.

Colo320 cells [1] = test: MTT antiproliferative assay, resistant cells; format: cell-based, human; conditions: for IC50: Homo sapiens, COLO 320, resistant Colo320, MTT, 72 h, mean ± SD, read-out: IC50 Colo320 (B); for SI (selectivity index) C/B: IC50 MRC-5 / IC50 Colo320; for RR (relative resistance ratio) B/A: IC50 resistant Colo320 / IC50 sensitive Colo205
Procedure: as §1, §2, §3

MRC-5 cells = test: MTT antiproliferative assay, normal lung fibroblasts; format: cell-based; conditions: Homo sapiens, normal embryonal lung fibroblasts, 72 h, mean ± SD, read-out: IC50 MCR-5 (C)
Procedure: as §1, §2, §3

Colo320 cells [2] = test: Checkerboard drug combination assay with doxorubicin; format: cell-based, human; conditions: for Type of interaction: Colo320; for CI at IC50 (combination index): Colo320, 50% growth inhibition
Procedure: The interaction of lycorine (1) and some selected derivatives (2, 5, 9, 13, 16, 19, 25, and 26) in combination with the chemotherapeutic drug doxorubicin was performed by the checkerboard assay, a widely used technique for assessing drug interactions, in resistant human Colo320 colon adenocarcinoma cells. The type of drug–drug interaction was evaluated by using the Chou and Talalay method for drug combination and expressed using the combination index (CI) values, and therefore evaluated as synergism (CI < 1), additive (CI = 1), or antagonist (CI > 1).
Drug combination interactions between the compounds and the chemotherapeutic drug doxorubicin were assessed by the checkboard microplate assay on the resistant Colo320, expressing the P-gp transporter. Doxorubicin was serially diluted in the horizontal direction in 100 µL, starting with 8.6 µM, and the compounds were subsequently diluted in the vertical direction in 50 µL. The starting concentration was determined based on the IC50 values. The cells were resuspended in a culture medium and distributed into each well in 50 µL, containing 6 × 10^3 cells, to a final volume of 200 µL per well. The plates were incubated for 72 h at 37 °C in a CO2 incubator, and the cell growth was determined by the MTT staining method, as described previously. Drug interactions were evaluated using CompuSyn software to plot 4 or 5 data points for each ratio (ref software). The results were expressed in terms of combination index (CI) values of 50% growth inhibition, in which a CI value close to 1 indicates additivity, while a CI < 1 is defined as synergy, and a CI > 1 as antagonism.

[3] = biological target: T1, recombinant human P-gp membranes (Homo sapiens, UniProt P08183); test: P-gp-Glo ATPase activity assay; format: biochemical; conditions: 25 µM, basal activity = 100%
T1 construct: purchased Promega
Procedure: To evaluate the type of interaction between selected compounds and P-gp, namely to determine if they interacted as stimulators or inhibitors, the ATPase activity assay (P-gp.Glo^TM) was performed, using human P-gp membranes. This assay is based on the ATP consumption necessary for the efflux, obtained from ATP hydrolysis by light-generating firefly luciferase reaction. […] Vanadate is a selective and strong P-gp inhibitor. Therefore, the compounds can be classified as inhibitors or stimulators/substrates by comparing P-gp ATPase activity with the basal activity; stimulators give results higher than 100%, while inhibitors result below 100% of the basal activity. […] The results are presented in Figure 2 as the difference between the luciferase luminescence observed when treated with the tested compounds and with vanadate and compared with the basal activity (100%).
The P-glycoprotein ATPase assay was assessed using the P-gp-Glo^TM Assay System (Promega, WI, USA). The assay was performed according to the manufacturer’s instructions. Briefly, 20 µL of recombinant human P-gp membranes (1.25 mg/mL), expressing high levels of human P-gp, were incubated in 20 µL of P-gp-Glo^TM assay buffer for 5 min at 37 °C. […] The reaction was initiated by adding 10 µL of 25 mM MgATP, and incubated at 37 °C for 40 min. The reaction was stopped after adding 50 µL of ATP Detection Reagent, and the samples and controls were incubated at room temperature for 20 min. The emitted luciferase-generated luminescent signal was measured in a CLARIOstar Plus plate reader (BMG Labtech, Ortenberg, Germany) at 580 nm. The relative ATPase activity was calculated based on the ratio between the luminescence measured of the P-gp ATPase activity of each compound and the basal P-gp ATPase activity according to Equation (3): (3) Relative ATPase activity= Lumtreated−Lumuntreated /LumNa3VO4/Lumuntreated

T1 sequence (P08183 whole entry): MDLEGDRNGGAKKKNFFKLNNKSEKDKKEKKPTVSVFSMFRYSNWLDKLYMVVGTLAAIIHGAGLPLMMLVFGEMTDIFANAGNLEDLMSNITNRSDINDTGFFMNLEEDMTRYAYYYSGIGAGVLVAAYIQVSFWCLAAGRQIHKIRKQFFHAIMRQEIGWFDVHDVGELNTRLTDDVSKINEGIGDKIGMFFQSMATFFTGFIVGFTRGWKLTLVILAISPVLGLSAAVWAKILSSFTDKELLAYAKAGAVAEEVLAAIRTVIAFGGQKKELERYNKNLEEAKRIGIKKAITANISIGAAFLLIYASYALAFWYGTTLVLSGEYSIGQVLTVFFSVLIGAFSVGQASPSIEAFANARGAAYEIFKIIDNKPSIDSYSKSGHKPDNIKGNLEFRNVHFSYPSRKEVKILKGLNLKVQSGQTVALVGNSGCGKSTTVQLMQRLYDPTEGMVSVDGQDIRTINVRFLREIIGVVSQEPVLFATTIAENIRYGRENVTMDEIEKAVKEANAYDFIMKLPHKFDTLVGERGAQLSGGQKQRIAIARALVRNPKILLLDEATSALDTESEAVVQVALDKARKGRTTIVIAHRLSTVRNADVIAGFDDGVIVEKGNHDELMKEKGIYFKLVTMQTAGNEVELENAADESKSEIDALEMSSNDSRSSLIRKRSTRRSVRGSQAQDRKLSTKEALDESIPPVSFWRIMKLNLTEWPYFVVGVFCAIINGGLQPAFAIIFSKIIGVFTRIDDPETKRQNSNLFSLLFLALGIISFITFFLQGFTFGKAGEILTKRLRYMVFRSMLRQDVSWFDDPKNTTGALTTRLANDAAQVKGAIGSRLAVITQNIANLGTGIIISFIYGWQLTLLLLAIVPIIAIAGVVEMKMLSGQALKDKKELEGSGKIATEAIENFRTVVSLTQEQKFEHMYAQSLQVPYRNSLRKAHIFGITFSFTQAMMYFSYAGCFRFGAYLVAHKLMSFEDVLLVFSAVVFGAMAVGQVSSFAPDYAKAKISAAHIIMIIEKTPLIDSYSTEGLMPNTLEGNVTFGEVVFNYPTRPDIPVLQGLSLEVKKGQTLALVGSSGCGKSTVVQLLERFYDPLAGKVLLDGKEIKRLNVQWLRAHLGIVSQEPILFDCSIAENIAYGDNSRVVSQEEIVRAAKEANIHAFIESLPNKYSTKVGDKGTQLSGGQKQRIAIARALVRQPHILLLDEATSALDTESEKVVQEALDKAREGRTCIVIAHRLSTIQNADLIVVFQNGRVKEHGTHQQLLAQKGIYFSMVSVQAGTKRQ

SMILES | IC50 (Colo205 cells) [µM] | SI (selectivity index) C/A (Colo205 cells) | IC50 (Colo320 cells [1]) [µM] | SI (selectivity index) C/B (Colo320 cells [1]) | RR (relative resistance ratio) B/A (Colo320 cells [1]) | IC50 (MRC-5 cells) [µM] | Type of interaction (Colo320 cells [2]) | CI at IC50 (combination index) (Colo320 cells [2]) | Effect on basal P-gp ATPase activity [3]
O[C@H]1[C@H]2c3cc4c(cc3CN3CCC(=C[C@@H]1O)[C@H]23)OCO4 [Compound 1, lycorine] | 1.06 ± 0.02 | 2.86 | 0.93 ± 0.01 | 3.26 | 0.87 | 3.04 ± 0.11 | Moderate antagonism | – | –
O=C(NCc1ccc(Cl)cc1)OC1C=C2CCN3Cc4cc5c(cc4C(C1O)C23)OCO5 (stereo not shown) [Compound 2, Lycorine 2-yl (4-chlorobenzyl)carbamate] | 19.3 ± 0.87 | 3.01 | 40.4 ± 1.9 | 1.44 | 2.09 | 58.1 ± 0.83 | Slight synergism | 0.88 | decreased the basal activity
Cc1ccc(CNC(=O)OC2C=C3CCN4Cc5cc6c(cc5C(C2OC(=O)NCc2ccc(C)cc2)C34)OCO6)cc1 (stereo not shown) [Compound 5, Lycorine 1,2-diyl bis[(4-methylbenzyl)carbamate]] | > 100 | <0.057 | 32.7 ± 0.62 | 0.17 | – | 5.75 ± 0.47 | Strong synergism | 0.13 | decreased the basal activity
O=C(NCCc1ccccc1)OC1C=C2CCN3Cc4cc5c(cc4C(C1OC(=O)NCCc1ccccc1)C23)OCO5 (stereo not shown) [Compound 9, Lycorine 1,2-diyl bis(phenethylcarbamate)] | > 100 | <0.045 | 10.4 ± 0.28 | 0.43 | <0.10 | – | Synergism | 0.56 | decreased the basal activity
O=C(OC1C=C2CCN3Cc4cc5c(cc4C(C1O)C23)OCO5)N1CCc2ccccc2C1 (stereo not shown) [Compound 13, Lycorine 2-yl 3,4-dihydroisoquinoline-2(1H)-carboxylate] | 96.26 ± 0.33 | – | 78 ± 3.82 | – | – | > 100 | Synergism | 0.69 | –
O=C(OC1C=C2CCN3Cc4cc5c(cc4C(C1OC(=O)N1CCCCC1)C23)OCO5)N1CCCCC1 (stereo not shown) [Compound 16, Lycorine 1,2-diyl bis(piperidine-1-carboxylate)] | 55.4 ± 1.63 | 1.06 | 26.6 ± 1.37 | 2.22 | – | 59.2 ± 4.82 | Synergism | 0.57 | –
CC(C)(C)c1ccc(CNC(=O)OC2C=C3CCN4Cc5cc6c(cc5C(C2O)C34)OCO6)cc1 (stereo not shown) [Compound 19, Lycorine 2-yl [4-(tert-butyl)benzyl]carbamate] | 26.5 ± 0.476 | 1.63 | 7.64 ± 0.15 | 5.66 | 0.28 | 43.3 ± 0.75 | Slight synergism | 0.88 | decreased the basal activity
O=C(NCCc1ccc(Cl)cc1)OC1C=C2CCN3Cc4cc5c(cc4C(C1OC(=O)NCCc1ccc(Cl)cc1)C23)OCO5 (stereo not shown) [Compound 25, Lycorine 1,2-diyl bis[(4-chlorophenethyl)carbamate]] | 47.7 ± 1.35 | 0.099 | 3.14 ± 0.05 | 1.51 | 0.065 | 4.75 ± 0.08 | Synergism | 0.50 | decreased the basal activity
O=C(NCCc1ccc(Cl)cc1)OC1C=C2CCN3Cc4cc5c(cc4C(C1O)C23)OCO5 (stereo not shown) [Compound 26, Lycorine 2-yl (4-chlorophenethyl) carbamate] | 53.9 ± 0.98 | 0.96 | 37.9 ± 1.37 | 1.37 | – | 52.1 ± 3.09 | Slight synergism | 0.88 | decreased the basal activity
